What all share (type): biochemical
Assay [1] has as its target T1, pyranose oxidase (Trametes versicolor, UniProt P79076).
T1 construct: made in house; host or cells: Coriolus versicolor ATCC 20155, the native producer (not recombinant); Enzyme was purified from disrupted mycelium by HPA-75, Sepharose 4B and Sephadex G-100 columns
Here is the method: In this phase, 1.4 ml of 50 mM tris-hydrochloride buffer (pH 7.0), 0.1. ml of 250 mU enzyme solution and 0.5 ml of electron acceptor solutions having various concentrations as indicated in Table 2 were put into a cell with Thunberg tube. After saturating with dissolved oxygen, the reaction solution was mixed with 0.5 ml of a 0.1 M glucose solution. The change in absorbancy per minute from 30 minutes to 90 minutes after mixing was determined and the activities of the electron acceptors are expressed as relative activity.

In assay [2] the target is T1, pyranose oxidase. Briefly: biochemical. Here is the method: Samples of the enzyme were dissolved in Tris buffer solutions have the pH indicated in Figure 2 to make up enzyme solutions having an activity of 250 mU/3.7 ml. Each of the enzyme solutions was put into a BIOXYGRAPH cell (trade name for a cell for measuring oxygen concentration made by Kyusui Kagaku Laboratory, Japan), and 50 µℓ of 1 M glucose were added. Measurements were made to determine the amount of absorbed oxygen.
Various inhibitors were studied in the same manner as that adopted in determination of the optimum pH. A reaction solution comprising 3.4 ml of 50 mM tris-hydrochloride buffer (pH 7.0), 0.1 ml of enzyme solutin containing 280 mU of pyranose oxidase and 0.2 ml of 18.5 mM inhibitor solution were put into a cell for measuring oxygen uptake and 50µℓof 1M glucose were added thereto and the sample incubated at 37°C.

Assay [3] deals with T1, pyranose oxidase. As to the kind of experiment: Substrate specificity (relative activity on carbohydrates, peroxidase/4AA-phenol colour assay). The following applies: substrate: 0.1 ml of 100 mM carbohydrate liquor; enzyme 2.5 U/ml; percentage of the glucose reaction. Here is the method:
A 3.0 ml sample is first prepared comprising 1.0 ml of 0.1 M tris-hydrochloride buffer (pH 7.0), 0.2 ml of a colouring reagent prepared in advance as hereinafter described, 0.1 ml of 1 M glucose solution, 0.1 ml of a solution of the pyranose oxidase at a known concentration, 0.1 ml of 0.1 mM flavinadenine dinucleotide and 1.5 ml of distilled water. Said colouring reagent is prepared by adding 0.1 M tris-hydrochloride buffer (pH 7.0) containing 10 m mol ℓ4-aminoantipyrine (hereinafter referred to as 4AA) and 10 m mol/Zphenol, to an amount of a peroxidase which is sufficient to provide a peroxidase concentration in said buffer of 2000 U per 100 mI. The pyranose oxidase containing sample is incubated at 37°C and the increasing rate of the absorbancy at 500 nm is automatically measured on a spectrophotometer. If the molecular extinction coefficient of a quinoneimine pigment formed under these conditions is defined as 5.3 x 10^3, and one unit of enzymatic activity is defined as the amount of the enzyme that produces one µ mole of hydrogen peroxide per minute at a temperature of 37°C and at a pH of 7.0, then the enzymatic activity (A) of the pyranose oxidase in the sample can be defined by the following formula:- [formula] where A500 is the rate of increase of the absorbancy of the sample per minute at 500nm.
The same reactions as described in the assay method for enzymatic activity were repeated except that an enzyme concentration of 2.5 U/ml was used, and, as the substrate, 0.1 ml samples of various carbohydrate liquors indicated in Table I were used, each such liquor having a concentration of 100 mM. […] The specificity with respect to the latter two, in particular being a great deal lower than that of the known pyranose oxidase derived from microorganisms of the genus Polyporus (Table 1 of B.B.A. 167, 501-510 (1968)).

[4] abbreviates: electron acceptor concentration 0.1 mM, pH 7.0, 250 mU enzyme solution, 0.1 M glucose solution.
Setting [5] is: 0.2 ml of 18.5 mM inhibitor solution, 280 mU pyranose oxidase, pH 7.0, 37°C, 50 µl of 1M glucose.

Where two headings read alike, the source gives them in different places.

The text below walks through data of patent publication EP0119332A1, “Novel pyranose oxidase processes for the production and use thereof and test compositions for use therein” (priority 1983, dated 1984).

On to `O=C1C(Cl)=CC(=Nc2ccc(O)cc2)C=C1Cl` [2,6-Dichlorophenolindophenol], for which, at pyranose oxidase [1] (electron acceptor concentration 0.04 mM, pH 7.0, 250 mU enzyme solution, 0.1 M glucose solution), the “Relative Activity (%)” value is given as 2.5%.
As to `Oc1cccc2cccnc12` [8-hydroxyquinoline], the “Percent Inhibition (%)” value at pyranose oxidase [2] (pH 7) came to 13.3%.
Consider `NC(=O)c1ccc[n+]([C@@H]2O[C@H](COP(=O)([O-])OP(=O)(O)OC[C@H]3O[C@@H](n4cnc5c(N)ncnc54)[C@H](OP(=O)(O)O)[C@@H]3O)[C@@H](O)[C@H]2O)c1` [Nicotinamide-adenine dinucleotide phosphate], for which the “Relative Activity (%)” value at pyranose oxidase [1] (setting [4]) is 0%.
Same read-out and setting: for `NC(=O)c1ccc[n+]([C@@H]2O[C@H](COP(=O)([O-])OP(=O)(O)OC[C@H]3O[C@@H](n4cnc5c(N)ncnc54)[C@H](O)[C@@H]3O)[C@@H](O)[C@H]2O)c1` [Nicotinamide-adenine dinucleotide] the value was 0%.
On to `O=O` [Oxygen], for which the “electron acceptor suitability (in words)” value at pyranose oxidase [1] is “optimum electron acceptor”. Also, at pyranose oxidase [1] (pH 7), the “Relative Activity (%)” value came to 100%.
For the compound `O=C(CO)[C@@H](O)[C@H](O)[C@H](O)CO` [fructose], the “Relative Activity (%)” value at pyranose oxidase [3] is recorded as 0%.
Same read-out and setting: for `O=C[C@H](O)[C@@H](O)[C@@H](O)[C@H](O)CO` [galactose] the value was 0.9%; for `O=C(O)[C@H](O)[C@@H](O)[C@H](O)[C@H](O)CO` [gluconic acid], 0%.
The same measure, in the same setting: for `N[C@H]1C(O)O[C@H](CO)[C@@H](O)[C@@H]1O` (stereo partly shown) [glucosamine] the value was 0%.
In the case of `OO` [hydrogen peroxide], the inhibition at 18500 µM on pyranose oxidase [2] (pH 7, read-out: Percent Inhibition (%)) worked out at 20%.
In the case of `OC[C@H]1O[C@@H](O[C@H]2[C@H](O)[C@@H](O)C(O)O[C@@H]2CO)[C@H](O)[C@@H](O)[C@H]1O` (stereo partly shown) [lactose], the “Relative Activity (%)” value at pyranose oxidase [3] came to 0%.
Regarding `OC[C@H]1O[C@H](O[C@H]2[C@H](O)[C@@H](O)[C@H](O)O[C@@H]2CO)[C@H](O)[C@@H](O)[C@@H]1O` [maltose], the “Relative Activity (%)” value on pyranose oxidase [3] is given as 0%.
The same measure, in the same setting: then `OC[C@@H](O)[C@@H](O)[C@H](O)[C@H](O)CO` [mannitol], with 0%.
Consider `O=[N+]([O-])[O-].[Ag+]` [silver nitrate], for which, on pyranose oxidase [2] (setting [5]), the “Percent Inhibition (%)” value was found to be 53.3%.
As for `O=C(CO)[C@H](O)[C@@H](O)[C@H](O)CO` [sorbose], the “Relative Activity (%)” value at pyranose oxidase [3] is given as 3.4%.
In the case of `OC[C@H]1O[C@H](O[C@H]2O[C@H](CO)[C@@H](O)[C@H](O)[C@H]2O)[C@H](O)[C@@H](O)[C@@H]1O` [trehalose], the “Relative Activity (%)” value on pyranose oxidase [3] was 0%.
For `O=C[C@H](O)[C@@H](O)[C@H](O)CO` [xylose], the “Relative Activity (%)” value on pyranose oxidase [3] was 2.6%.
For the compound Nitroprusside-tetrazolium, the “Relative Activity (%)” value at pyranose oxidase [1] (setting [4]) is reported as 0%.
For the compound cobalt sulfate, the “Percent Inhibition (%)” value at pyranose oxidase [2] (setting [5]) came out at 13.3%.
Same read-out and setting: for copper sulfate the value was 35.7%.
Regarding magnesium sulfate, the “Percent Inhibition (%)” value on pyranose oxidase [2] (setting [5]) is on record as 0%.

A word on the inhibition: it is the drop in the measured response relative to a control, in per cent.
